{"source": "patent US12350267B2", "about": "“Bile acid recycling inhibitors for treatment of pediatric cholestatic liver diseases” (SHIRE HUMAN GENETIC THERAPIES, INC., priority 2011, dated 2025)", "key": {"[1]": {"tested_on": "fecal bile acid excretion and plasma bile acid concentrations", "test": "ZDF rat study of 264W94: fecal bile acid excretion and plasma bile acid concentrations", "format": "in vivo, Male Zucker diabetic fatty rats (ZDF/GmiCrl-fa/fa)", "conditions": "2 weeks", "protocol": "Animal preparation. Male Zucker diabetic fatty rats (ZDF/GmiCrl-fa/fa) were purchased from Charles River (Raleigh, NC) and housed under controlled conditions (12:12 light-dark cycle, 24° C. and 50% relative humidity) with free access to rodent food (Purina 5008, Harlan Teklad, Indianapolis, IN). All rats arrived at seven weeks of age (±3 days). After a one-week acclimation period, rats were anesthetized with isoflurane (Abbott Laboratories, IL) and tail-vein blood samples were collected at 9 am without fasting. Blood glucose levels were measured using a glucometer (Bayer, Leverkusen, Germany). In order to ensure balanced treatment groups, ZDF rats were assigned to six treatment groups based upon baseline glucose: vehicle (0.5% HPMC, 0.1% Tween80) and five doses of 264W94 (0.001, 0.01, 0.1, 1, 10 mg/kg). All treatments were given via oral gavage twice a day and animals were followed for two weeks with blood samples collected from tail vein at the end of each week at 9 am without fasting. Fecal samples were collected for 24 hours during the second week of treatment.\nMeasurement of clinical chemistry parameters. Non-esterified fatty acids (NEFA), bile acids, and bile acids in fecal extraction were measured using the Olympus AU640 clinical chemistry analyzer (Beckman Coulter, Irving, TX)."}, "[2]": {"tested_on": "Postprandial Total Serum Bile Acids", "test": "Time to onset of activity of LUM001 on postprandial serum bile acids in dogs", "format": "in vivo, Beagle dogs", "conditions": "dog; dose increased above ED50 level to 1 mg/kg", "protocol": "Animal Study on the Duration of Action and Time to Onset of ASBTI Activity of a Single Oral Dose of LUM001 on Postprandial Total Serum Bile Acids in Beagle Dogs\nTest Compound: LUM001—Form I\n(§1) Dosage preparation and administration: LUM001 was dissolved in water at concentrations that required the administration of 0.2 ml/kg of solution. Solutions were placed into gelatin capsules, Torpac Inc., size 13 Batch 594, East Hanover NJ, and administered orally.\n(§2) Dogs: Male beagle dogs were obtained from Covance Research Products, Cumberland VA or Marshall Farms USA, Inc., North Rose NY. A total of 20 dogs, 1 to 5 years old, 6.8 to 15.6 kg body weight, were used in these experiments. The dogs were conditioned to a 12 hour light/dark cycle and maintained on a feeding restriction of 1 hour per day access to food (Richman Standard Certified Canine Diet #5007, PMI Nutrition, Inc., St Louis MO) from 7 to 8 AM. They were trained to eat a special meal promptly within 20 minutes when presented (1 can. 397 g, Evanger's 100% Beef for Dogs, Evanger's Dog and Cat Food Co., Inc., Wheeling IL, mixed with 50 g of sharp cheddar cheese).\nSerum Total Bile Acid (SBA) Measurement: SBA was measured by an enzymatic assay. SBA values are expressed as μg of total bile acids/ml of serum. […]"}, "[3]": {"tested_on": "Postprandial Total Serum Bile Acids", "test": "Duration of action of LUM001 on dog serum bile acids, Method 2 (dosing before feeding)", "format": "in vivo, Beagle dogs", "conditions": "dogs n=9, 0.05 mg/kg (2nd dose column), dosing time 0 hr, feeding time 2 hr", "protocol": "as §1, §2\nSerum Total Bile Acid (SBA) Measurement: SBA was measured by an enzymatic assay. SBA values are expressed as μg of total bile acids/ml of serum.\nExperiments to Measure the Duration of Action of LUM001: In dogs a single experimental meal produces a postprandial rise in SBA that is elevated to a peak at 1 hour after feeding and constant for an additional 3 hours. Previous experiments (2) indicate that LUM001 remains active for more than 4.5 hours. […]"}, "[4]": {"tested_on": "serum bile acids and fecal bile acids", "test": "Phase 1 ascending multiple oral doses of LUM001 in healthy subjects: serum and fecal bile acids", "format": "in vivo", "conditions": "healthy adult subjects; multiple oral doses qAM, 28 days", "protocol": "A Randomized, Double-Blind, Placebo Controlled, Safety, Tolerability, Pharmacokinetic, and Pharmacodynamic Study of Ascending Multiple Oral Doses of LUM001 in Healthy Subjects\nThis Phase 1 study was a randomized, double-blind, placebo-controlled study of ascending multiple oral doses of LUM001 in healthy, adult subjects. This study was conducted at a single center. There were 13 LUM001 dosing panels: 10, 20, 60, 100, and 20 mg every morning (qAM) (2) (i.e., the regimen was tested a second time in the study), 5 mg every evening (qPM), 0.5, 1, 2.5, 5, 2.5 (2), 5 (2), and 0.5 to 5 mg qAM dose titration. Most of the dosing panels included subjects treated with matching placebo. […]\nSBA were analyzed as part of the routine clinical analysis of the serum samples collected at each time point.\nFecal Bile Acid Analysis: Fecal samples were collected for all panels except the dose-titration panel, 2.5 (2) and 5 mg (2), on Days 9 through 14 and 23 through 28 (data shown in FIG. 4). Twenty-four hour FBA excretions were quantified by Pharmacia for Days 9 through 14 and 23 through 28. […] The weight of each 24-hour fecal collection was recorded on the CRFs. […]\nAn aliquot for each 24-hour fecal sample collected on Days 23 through 28 was combined, homogenized, and analyzed for bile acid species concentrations by ANAPHARM. […]"}, "[5]": {"test": "Pharmacokinetics of LUM001 in pediatric subjects (study NB-00-02-014)", "format": "in vivo", "conditions": "measured on day eight", "protocol": "LUM001 has been administered to forty patients under the age of 18 years old. […] The drug was administered once-a-day (QD) in the morning for fourteen days. […] These doses are similar to those using to treat children with cholestatic diseases."}, "[6]": {"tested_on": "Postprandial Total Serum Bile Acids", "conditions": "dog; previous experiments (2); cited from earlier work"}, "plasma bile acid levels": {"tested_on": "plasma bile acid levels", "test": "Plasma bile acid levels of ZDF rats after ascending doses of SC-435 and LUM002", "format": "in vivo, Male ZDF rats", "conditions": "ZDF rats n=4; oral gavage twice a day for 2 weeks; all doses (SC-435 1, 10 or 30 mg/kg; LUM002 0.3, 1, 3, 10 or 30 mg/kg)", "protocol": "FIG. 2. Plasma bile acid levels of ZDF rats after administration of ascending doses of SC-435 and LUM002. Male ZDF rats (n=4) were administered vehicle, SC-435 (1, 10 or 30 mg/kg) or LUM002 (0.3, 1, 3, 10 or 30 mg/kg) by oral gavage twice a day for 2 weeks. Plasma bile acid levels were determined at the end of the second week. Data are expressed as mean values±SEM.\nPlasma bile acid levels of ZDF rats after administration of ascending doses of SC-435 and LUM002. Male ZDF rats (n=4) were administered vehicle, SC-435 (1, 10 or 30 mg/kg) or LUM002 (0.3, 1, 3, 10 or 30 mg/kg) by oral gavage twice a day for 2 weeks. Plasma bile acid levels were determined at the end of the second week. […] Data are expressed as mean values±SEM."}, "[7]": {"conditions": "ZDF rats, oral gavage twice a day"}}}
{"smiles": "CCCC[C@]1(CC)CS(=O)(=O)c2cc(OC)c(OC)cc2[C@@H](c2ccccc2)N1", "note": "[Compound 264W94]", "values": [{"measurement": "Fecal bile acid concentrations elevated compared to vehicle treated rats", "setting": "[1]; 0.001-10 mg/kg oral gavage twice a day, maximum elevation (up to)", "value": "up to 6.5 fold"}, {"measurement": "Plasma bile acid concentrations", "setting": "[1]; ZDF rats, 0.001-10 mg/kg oral gavage twice a day", "value": "decreased dose-dependently"}, {"measurement": "ED50 for elevation of fecal bile acid concentrations", "setting": "[1]; [7]", "value": 0.17, "unit": "mg/kg"}, {"measurement": "Fecal NEFA", "setting": "[1]; [7]", "value": "slightly increased"}]}
{"smiles": "CCCCC1(CCCC)CS(=O)(=O)c2ccc(N(C)C)cc2[C@@H](c2ccc(OCc3ccc(C[N+]45CCN(CC4)CC5)cc3)cc2)[C@H]1O", "note": "[LUM001]", "values": [{"measurement": "Onset time to significant SBA lowering versus ED50 dose", "setting": "[2]", "value": "did not shorten"}, {"measurement": "Serum Bile Acid, Mean", "setting": "[3]", "value": 1.7, "unit": "µg/mL"}, {"measurement": "Fecal bile acids", "setting": "[4]", "value": "significant increase"}, {"measurement": "Serum bile acids", "setting": "[4]", "value": "significant reduction"}, {"measurement": "Average serum drug exposure", "setting": "[5]; Subject 0510, 5.0 mg QD (168.4 μg/kg)", "value": "0,0 ng/ml"}, {"measurement": "Systemic exposure / absorption by the children", "setting": "[5]; patients under 18, QD in the morning", "value": "minimally absorbed"}, {"measurement": "Time LUM001 remains active (previous experiments)", "setting": "[6]", "value": "more than 4.5 hours"}]}
{"smiles": "CCCC[C@]1(CC)CS(=O)(=O)c2ccc(N(C)C)cc2[C@@H](c2cccc(NC(=O)N[C@@H]3O[C@H](COS(=O)(=O)[O-])[C@@H](O)[C@H](OCc4ccccc4)[C@H]3O)c2)[C@H]1O.[K+]", "note": "[LUM002]", "values": [{"measurement": "Plasma bile acid levels", "setting": "plasma bile acid levels", "value": "decreased"}]}
{"smiles": "CCCCC1(CCCC)CS(=O)(=O)c2ccc(N(C)C)cc2[C@@H](c2ccc(OCCCC[N+]34CCN(CC3)CC4)cc2)[C@H]1O.CS(=O)(=O)[O-]", "note": "[SC-435, 1-[4-[4-[(4R,5R)-3,3-dibutyl-7-(dimethylamino)-2,3,4,5-tetrahydro-4-hydroxy-1,1-dioxido-1-benzothiepin-5-yl]phenoxy]butyl]4-aza-1-azoniabicyclo[2.2.2]octane methanesulfonate salt, reference compound]", "values": [{"measurement": "Plasma bile acid levels", "setting": "plasma bile acid levels", "value": "decreased"}]}
